# Test results reported in ChEMBL document CHEMBL1697692, “Developing structure-activity relationships for the prediction of hepatotoxicity” (Chem Res Toxicol, 2010).
# Tested on: Hepatotoxicity
# Assay: Literature-mined public compounds from Greene et al multi-species hepatotoxicity modelling dataset
row,Compound,Hepatotoxicity
1,CCOc1nc2cccc(C(=O)O)c2n1Cc1ccc(-c2ccccc2-c2nnn[nH]2)cc1,WE: Weak evidence (<10 case reports) of human hepatotoxicity
2,CCCc1nc2c(C)cc(-c3nc4ccccc4n3C)cc2n1Cc1ccc(-c2ccccc2C(=O)O)cc1,WE: Weak evidence (<10 case reports) of human hepatotoxicity
3,CCCCC(=O)N(Cc1ccc(-c2ccccc2-c2nnn[nH]2)cc1)[C@H](C(=O)O)C(C)C,WE: Weak evidence (<10 case reports) of human hepatotoxicity
4,CC(C)(C)NCC(O)c1cc(O)cc(O)c1.O=S(=O)(O)O (stereo unspecified),HH: Evidence of human hepatotoxicity
5,COc1cccc(OC)c1C(=O)N[C@@H]1C(=O)N2[C@@H]1SC(C)(C)[C@@H]2C(=O)[O-].[Na+],HH: Evidence of human hepatotoxicity
6,CN[C@@H]1[C@H](O)[C@H](NC)[C@H]2O[C@@]3(O)C(=O)C[C@@H](C)O[C@H]3O[C@@H]2[C@H]1O.Cl,HH: Evidence of human hepatotoxicity
7,CCO.C[C@H]1c2cccc(O)c2C(=O)C2=C(O)[C@]3(O)C(=O)C(C(N)=O)=C(O)[C@@H](N(C)C)[C@@H]3[C@@H](O)[C@@H]21.Cl.O,HH: Evidence of human hepatotoxicity
8,Cl.NCCNCCNCCN,HH: Evidence of human hepatotoxicity
9,CCN(CC)CCNC(=O)c1cc(Cl)c(N)cc1OC.Cl,HH: Evidence of human hepatotoxicity
10,CNS(=O)(=O)Cc1ccc2[nH]cc(CCN(C)C)c2c1,NE: No evidence of hepatotoxicity in any species
11,CN(C)CCN(Cc1cccs1)c1ccccn1,HH: Evidence of human hepatotoxicity
12,Cl.Cl.OCCN1CCN(CC/C=C2/c3ccccc3Sc3ccc(C(F)(F)F)cc32)CC1,NE: No evidence of hepatotoxicity in any species
13,CCCCCOC(=O)c1ccccc1C(=O)OCCCCC,AH: Evidence for animal hepatotoxicity but not tested in humans
14,CC1=C(CC(=O)O)c2cc(F)ccc2/C1=C\c1ccc([S+](C)[O-])cc1 (stereo unspecified),HH: Evidence of human hepatotoxicity
15,CCOC(=O)[C@H](CCc1ccccc1)N[C@@H](C)C(=O)N1Cc2ccccc2C[C@H]1C(=O)O,HH: Evidence of human hepatotoxicity
16,Cl.Nc1cc(Cl)cc(Cl)c1,NE: No evidence of hepatotoxicity in any species
17,NC(CS/C(Cl)=C/Cl)C(=O)O (stereo unspecified),AH: Evidence for animal hepatotoxicity but not tested in humans
18,S=C=Nc1ccc2ccccc2c1,WE: Weak evidence (<10 case reports) of human hepatotoxicity
19,C=CC(O)CC#N (stereo unspecified),NE: No evidence of hepatotoxicity in any species
20,Nc1cc(Cl)c(O)c(Cl)c1.Nc1ccc(O)cc1,AH: Evidence for animal hepatotoxicity but not tested in humans
21,CO/N=C(/C(=O)N[C@@H]1C(=O)N2C(C(=O)[O-])=C(CSc3nc(=O)c(O)nn3C)CS[C@H]12)c1csc(N)n1.[Na+],HH: Evidence of human hepatotoxicity
22,O=C1NC(=O)C(O)(O)C(=O)N1,NE: No evidence of hepatotoxicity in any species
23,Oc1ccccc1Br,AH: Evidence for animal hepatotoxicity but not tested in humans
24,O=C(O)COc1ccc(C(=O)c2cccs2)c(Cl)c1Cl,HH: Evidence of human hepatotoxicity
25,CCN(CC)Cc1cc(Nc2ccnc3cc(Cl)ccc23)ccc1O.Cl.Cl.Cl,HH: Evidence of human hepatotoxicity
26,N#CC(C#N)=NNc1ccc(OC(F)(F)F)cc1,AH: Evidence for animal hepatotoxicity but not tested in humans

row,Compound,Hepatotoxicity
1,O=C1NCN(c2ccccc2)C12CCN(CCCC(c1ccc(F)cc1)c1ccc(F)cc1)CC2,HH: Evidence of human hepatotoxicity
2,C[n+]1ccc(-c2cc[n+](C)cc2)cc1,AH: Evidence for animal hepatotoxicity but not tested in humans
3,Nc1ccc(Cc2ccc(N)cc2)cc1,AH: Evidence for animal hepatotoxicity but not tested in humans
4,C=C1CC[C@@]2(O)[C@H]3Cc4ccc(O)c5c4[C@@]2(CCN3CC2CC2)[C@H]1O5,NE: No evidence of hepatotoxicity in any species
5,CCSCC[C@H](N)C(=O)O (stereo in doubt; form 1) [ETHIONINE],HH: Evidence of human hepatotoxicity
6,Cl[C@H]1[C@H](Cl)[C@@H](Cl)[C@@H](Cl)[C@H](Cl)[C@H]1Cl (stereo in doubt; form 1) [LINDANE],NE: No evidence of hepatotoxicity in any species
7,C[C@H](CCC(=O)O)[C@H]1CC[C@H]2[C@@H]3[C@@H](O)C[C@@H]4C[C@H](O)CC[C@]4(C)[C@H]3CC[C@]12C (stereo in doubt; form 1) [URSODIOL],HH: Evidence of human hepatotoxicity
8,CCSCC[C@H](N)C(=O)O (stereo in doubt; form 2) [ETHIONINE],AH: Evidence for animal hepatotoxicity but not tested in humans
9,Cl[C@H]1[C@H](Cl)[C@@H](Cl)[C@@H](Cl)[C@H](Cl)[C@H]1Cl (stereo in doubt; form 2) [LINDANE],HH: Evidence of human hepatotoxicity
10,C[C@H](CCC(=O)O)[C@H]1CC[C@H]2[C@@H]3[C@@H](O)C[C@@H]4C[C@H](O)CC[C@]4(C)[C@H]3CC[C@]12C (stereo in doubt; form 2) [URSODIOL],WE: Weak evidence (<10 case reports) of human hepatotoxicity
11,"ClCCCl [1,2-DICHLOROETHANE]",AH: Evidence for animal hepatotoxicity but not tested in humans
12,"Clc1ccc(Cl)cc1 [1,4-DICHLOROBENZENE]",AH: Evidence for animal hepatotoxicity but not tested in humans
13,S=C=Nc1cccc2ccccc12 [1-NAPHTHYLISOTHIOCYANATE],HH: Evidence of human hepatotoxicity
14,"CCCC(C)(F)F [2,2-DIFLUOROPENTANE]",AH: Evidence for animal hepatotoxicity but not tested in humans
15,"Clc1cc2c(cc1Cl)Oc1cc(Cl)c(Cl)cc1O2 [2,3,7,8-TETRACHLORODIBENZO-P-DIOXIN]",AH: Evidence for animal hepatotoxicity but not tested in humans
16,"O=[N+]([O-])c1ccc(O)c([N+](=O)[O-])c1 [2,4-DINITROPHENOL]",AH: Evidence for animal hepatotoxicity but not tested in humans
17,CC(=O)Nc1ccc2c(c1)Cc1ccccc1-2 [2-ACETYLAMINOFLUORENE],HH: Evidence of human hepatotoxicity
18,Cc1ccc2cc3c(ccc4ccccc43)c3c2c1CC3 [3-METHYLCHOLANTHRENE],HH: Evidence of human hepatotoxicity
19,Nc1nc(NC2CC2)c2ncn([C@H]3C=C[C@@H](CO)C3)c2n1 [ABACAVIR],HH: Evidence of human hepatotoxicity
20,CC(=O)CC(c1ccc([N+](=O)[O-])cc1)c1c(O)c2ccccc2oc1=O (stereo unspecified) [ACENOCOUMAROL],HH: Evidence of human hepatotoxicity
21,CC(=O)Nc1ccc(O)cc1 [ACETAMINOPHEN],HH: Evidence of human hepatotoxicity
22,CC(=O)Nc1nnc(S(N)(=O)=O)s1 [ACETAZOLAMIDE],HH: Evidence of human hepatotoxicity
23,CC(=O)c1ccc(S(=O)(=O)NC(=O)NC2CCCCC2)cc1 [ACETOHEXAMIDE],HH: Evidence of human hepatotoxicity
24,CC(=O)OCC[N+](C)(C)C.[Cl-] [ACETYLCHOLINE CHLORIDE],NE: No evidence of hepatotoxicity in any species
25,CC(=O)N[C@@H](CS)C(=O)O [ACETYLCYSTEINE],NE: No evidence of hepatotoxicity in any species
